Where no end group is shown, it is not given here.
What was measured:
CD94/NKG2A = CD94/NKG2A (Homo sapiens, UniProt P26715+Q13241); test: Steady-state surface plasmon resonance of peptide-HLA-E complex with CD94/NKG2A; assay type: binding; conditions: for Binding of peptide-HLA-E complexes to CD94/NKG2A normalized to a theoretical Rmax: steady-state SPR
Procedure: (§1) Binding affinity of novel peptides linked to HLA-E was determined using surface plasmon resonance (SPR), a methodology used to study protein-protein interactions (Tables 15-19). The peptide-HLA-E complex (generated as a single chain trimer) was immobilized on the sensor chip surface and CD94/NKG2A or CD94/NKG2C were flowed over. Steady-state surface plasmon resonance experiments were performed with a Biacore T200 instrument. CD94/NKG2x in HBS-EP+ buffer was injected as analyte in a concentration range of 0.1 μM to 102.4 μM and flow rate of 10 μL/min at 25° C. Data was fit with Prism 9.4 (GraphPad Software Inc; San Diego CA) to a “one site, specific binding” model. Series S CM5 chips were coupled to neutravidin and utilized. Biotinylated pMHC was immobilized at approximately 400 RU. KD values calculated by Biacore software are reported. Rmax, fit values were calculated by Biacore software. Rmax, theoretical values were calculated using the analyte/ligand mass ratio (0.66) multiplied by the amount of ligand coupled to the chip.

HLA-E = target: T1, HLA-E (Homo sapiens, UniProt P13747); test: HLA-E surface stabilization assay with RMA-S/HLA-E cells; assay type: cell-based; conditions: 30 μM peptide, 16 hours; for HLA-E surface expression stability (GeoMFI): anti-HLA-E antibody
T1 construct: expressed in transfected cells; host or cells: RMA-S/HLA-E cells (antigen processing-defective lymphoma cell line)
T1 sequence (P13747 22-358): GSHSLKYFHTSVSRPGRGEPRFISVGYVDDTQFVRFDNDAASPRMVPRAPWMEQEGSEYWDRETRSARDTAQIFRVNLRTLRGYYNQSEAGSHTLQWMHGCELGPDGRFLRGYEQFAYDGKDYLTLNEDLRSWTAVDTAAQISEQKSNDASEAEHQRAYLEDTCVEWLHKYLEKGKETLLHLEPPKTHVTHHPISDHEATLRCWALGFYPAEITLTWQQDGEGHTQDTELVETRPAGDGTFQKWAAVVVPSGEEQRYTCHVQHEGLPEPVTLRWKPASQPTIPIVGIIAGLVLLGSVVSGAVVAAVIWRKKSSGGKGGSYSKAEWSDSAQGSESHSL
T1 sequence (P61769 21-119 partner): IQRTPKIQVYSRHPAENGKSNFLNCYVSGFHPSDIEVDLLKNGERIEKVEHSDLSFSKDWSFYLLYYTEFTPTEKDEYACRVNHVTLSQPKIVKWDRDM
Procedure: HLA-E surface expression was assessed by measuring geometric mean fluorescence intensity (GeoMFI) in RMA-S cells following immunofluorescence staining with an anti-HLA-E antibody (Table 14). Increased GeoMFI was indicative of increased HLA-E surface expression stability following novel peptide exposures (FIG. 3).

CD94/NKG2C = CD94/NKG2C (Homo sapiens, UniProt P26717+Q13241); test: Steady-state surface plasmon resonance of peptide-HLA-E complex with CD94/NKG2C; assay type: binding
Sequence of CD94/NKG2C (P26717 94-231 limits assumed): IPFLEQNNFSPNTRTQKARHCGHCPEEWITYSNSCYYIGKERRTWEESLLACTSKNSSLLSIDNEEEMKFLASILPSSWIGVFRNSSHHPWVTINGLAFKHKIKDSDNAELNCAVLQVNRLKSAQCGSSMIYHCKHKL
Sequence of CD94/NKG2C (Q13241 32-179 limits assumed): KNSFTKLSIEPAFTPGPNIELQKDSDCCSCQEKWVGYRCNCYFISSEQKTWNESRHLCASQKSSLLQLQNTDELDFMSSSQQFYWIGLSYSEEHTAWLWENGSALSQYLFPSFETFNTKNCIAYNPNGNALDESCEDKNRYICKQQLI
Procedure: as §1

Sequence of CD94/NKG2A (P26715 94-233 limits assumed): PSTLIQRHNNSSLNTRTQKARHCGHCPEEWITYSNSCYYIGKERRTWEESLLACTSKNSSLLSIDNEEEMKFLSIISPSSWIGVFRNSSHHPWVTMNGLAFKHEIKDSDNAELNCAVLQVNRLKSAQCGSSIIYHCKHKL
Sequence of CD94/NKG2A (Q13241 32-179 limits assumed): as the sequence (Q13241 32-179 limits assumed) above

## TAPARTMFL [human13, TAPARTMFL]
CD94/NKG2A; CD94/NKG2A concentration 0 μM
  binding of peptide-HLA-E complex to CD94/NKG2A normalized to a fitted Rmax: 0.010
CD94/NKG2A; CD94/NKG2A concentration 0.1 μM
  binding of peptide-HLA-E complex to CD94/NKG2A normalized to a fitted Rmax: 0.024
CD94/NKG2A; CD94/NKG2A concentration 0.2 μM
  binding of peptide-HLA-E complex to CD94/NKG2A normalized to a fitted Rmax: 0.037
CD94/NKG2A; CD94/NKG2A concentration 0.4 μM
  binding of peptide-HLA-E complex to CD94/NKG2A normalized to a fitted Rmax: 0.066
CD94/NKG2A; CD94/NKG2A concentration 0.8 μM
  binding of peptide-HLA-E complex to CD94/NKG2A normalized to a fitted Rmax: 0.115
CD94/NKG2A; CD94/NKG2A concentration 1.6 μM
  binding of peptide-HLA-E complex to CD94/NKG2A normalized to a fitted Rmax: 0.191
CD94/NKG2A; CD94/NKG2A concentration 3.2 μM
  binding of peptide-HLA-E complex to CD94/NKG2A normalized to a fitted Rmax: 0.302
CD94/NKG2A; CD94/NKG2A concentration 6.4 μM
  binding of peptide-HLA-E complex to CD94/NKG2A normalized to a fitted Rmax: 0.432
CD94/NKG2A; CD94/NKG2A concentration 12.8 μM
  binding of peptide-HLA-E complex to CD94/NKG2A normalized to a fitted Rmax: 0.558
CD94/NKG2A; CD94/NKG2A concentration 25.6 μM
  binding of peptide-HLA-E complex to CD94/NKG2A normalized to a fitted Rmax: 0.685
CD94/NKG2A; CD94/NKG2A concentration 51.2 μM
  binding of peptide-HLA-E complex to CD94/NKG2A normalized to a fitted Rmax: 0.819
CD94/NKG2A; CD94/NKG2A concentration 102.4 μM
  binding of peptide-HLA-E complex to CD94/NKG2A normalized to a fitted Rmax: 0.961
CD94/NKG2A; CD94/NKG2A analyte concentration 0.000 μM
  Binding of peptide-HLA-E complexes to CD94/NKG2A normalized to a theoretical Rmax: 0.006
CD94/NKG2A; CD94/NKG2A analyte concentration 0.100 μM
  Binding of peptide-HLA-E complexes to CD94/NKG2A normalized to a theoretical Rmax: 0.015
CD94/NKG2A; CD94/NKG2A analyte concentration 0.200 μM
  Binding of peptide-HLA-E complexes to CD94/NKG2A normalized to a theoretical Rmax: 0.023
CD94/NKG2A; CD94/NKG2A analyte concentration 0.400 μM
  Binding of peptide-HLA-E complexes to CD94/NKG2A normalized to a theoretical Rmax: 0.042
CD94/NKG2A; CD94/NKG2A analyte concentration 0.800 μM
  Binding of peptide-HLA-E complexes to CD94/NKG2A normalized to a theoretical Rmax: 0.074
CD94/NKG2A; CD94/NKG2A analyte concentration 1.600 μM
  Binding of peptide-HLA-E complexes to CD94/NKG2A normalized to a theoretical Rmax: 0.122
CD94/NKG2A; CD94/NKG2A analyte concentration 3.200 μM
  Binding of peptide-HLA-E complexes to CD94/NKG2A normalized to a theoretical Rmax: 0.193
CD94/NKG2A; CD94/NKG2A analyte concentration 6.400 μM
  Binding of peptide-HLA-E complexes to CD94/NKG2A normalized to a theoretical Rmax: 0.277
CD94/NKG2A; CD94/NKG2A analyte concentration 12.800 μM
  Binding of peptide-HLA-E complexes to CD94/NKG2A normalized to a theoretical Rmax: 0.357
CD94/NKG2A; CD94/NKG2A analyte concentration 25.600 μM
  Binding of peptide-HLA-E complexes to CD94/NKG2A normalized to a theoretical Rmax: 0.439
CD94/NKG2A; CD94/NKG2A analyte concentration 51.200 μM
  Binding of peptide-HLA-E complexes to CD94/NKG2A normalized to a theoretical Rmax: 0.524
CD94/NKG2A; CD94/NKG2A analyte concentration 102.400 μM
  Binding of peptide-HLA-E complexes to CD94/NKG2A normalized to a theoretical Rmax: 0.615
HLA-E
  HLA-E surface expression stabilization strength (in words): lower
HLA-E; Trial 1
  HLA-E surface expression stability (GeoMFI): 851 GeoMFI
HLA-E; Trial 2
  HLA-E surface expression stability (GeoMFI): 887 GeoMFI
HLA-E; Trial 3
  HLA-E surface expression stability (GeoMFI): 673 GeoMFI
HLA-E; Trial 4
  HLA-E surface expression stability (GeoMFI): 1187 GeoMFI
HLA-E; approximate value
  HLA-E surface expression stabilization strength, approximate GeoMFI: approximately 1×10^3 GeoMFI
CD94/NKG2C; CD94/NKG2C concentration 0 μM
  binding of peptide-HLA-E complex to CD94/NKG2C normalized to a fitted Rmax: 0.007
CD94/NKG2C; CD94/NKG2C concentration 0.1 μM
  binding of peptide-HLA-E complex to CD94/NKG2C normalized to a fitted Rmax: 0.017
CD94/NKG2C; CD94/NKG2C concentration 0.2 μM
  binding of peptide-HLA-E complex to CD94/NKG2C normalized to a fitted Rmax: 0.023
CD94/NKG2C; CD94/NKG2C concentration 0.4 μM
  binding of peptide-HLA-E complex to CD94/NKG2C normalized to a fitted Rmax: 0.040
CD94/NKG2C; CD94/NKG2C concentration 0.8 μM
  binding of peptide-HLA-E complex to CD94/NKG2C normalized to a fitted Rmax: 0.067
CD94/NKG2C; CD94/NKG2C concentration 1.6 μM
  binding of peptide-HLA-E complex to CD94/NKG2C normalized to a fitted Rmax: 0.117
CD94/NKG2C; CD94/NKG2C concentration 3.2 μM
  binding of peptide-HLA-E complex to CD94/NKG2C normalized to a fitted Rmax: 0.202
CD94/NKG2C; CD94/NKG2C concentration 6.4 μM
  binding of peptide-HLA-E complex to CD94/NKG2C normalized to a fitted Rmax: 0.317
CD94/NKG2C; CD94/NKG2C concentration 12.8 μM
  binding of peptide-HLA-E complex to CD94/NKG2C normalized to a fitted Rmax: 0.462
CD94/NKG2C; CD94/NKG2C concentration 25.6 μM
  binding of peptide-HLA-E complex to CD94/NKG2C normalized to a fitted Rmax: 0.613
CD94/NKG2C; CD94/NKG2C concentration 51.2 μM
  binding of peptide-HLA-E complex to CD94/NKG2C normalized to a fitted Rmax: 0.746
CD94/NKG2C; CD94/NKG2C concentration 102.4 μM
  binding of peptide-HLA-E complex to CD94/NKG2C normalized to a fitted Rmax: 0.904
